Results from a melting point compilation (Tetko et al.; mined from patent text by program, amines drawn as free bases though some values may be those of a salt).

| melting point | SMILES |
| --- | --- |
| 188 to 190 °C | CN(C)C=Nc1c(-c2c(F)cc(F)cc2F)c(Cl)nc2ncnn12 |
| 241 to 243 °C | COc1cc2c(Nc3ccc(Cl)cc3F)c(C#N)cnc2cc1OCc1ccccc1 |
| 102 °C | O=C(OCc1ccc(-c2ccccc2)cc1)c1cccc(CCl)c1 |
| 248 to 249 °C | COc1cccc(N(C)c2nc(NC(=O)C(C)(C)C)nc3[nH]c4ccccc4c23)c1 |
| 205 to 206 °C | O=c1c2ccc3[nH]cc(CCNS(=O)(=O)c4ccccc4)c3c2ccn1Cc1ccccc1 |
| 165 to 168 °C | O=C(O)Cn1cc(Cc2nc3c(F)c(F)cc(F)c3s2)c2cc(OCc3ccccc3)ccc21 |
| 177 to 178 °C | O=C1CCCC(=O)N1c1cc(I)cc(I)c1 |
| 223 to 225 °C | O=C1C(c2ccc(O)cc2)=C(c2ccccc2)c2c(O)cc(O)cc21 |
| 182 to 184 °C | CNC1=NS(=O)(=O)N=C1NCCCOc1cccc(CN2CCCCC2)c1 |
| 114 °C | CC(C)c1cc(Cl)nc(-c2ccc(C#N)cc2)n1 |
| 82 to 83 °C | CCOC(=O)/C=C/c1cnn(C)c1C |
| 136 to 137 °C | Cc1c(Cl)cc(N2CCN(CCCCN3C(=O)c4ccccc4S3(=O)=O)CC2)c2c1OCCO2 |
| > 360 °C | CSc1nc(O)c(C(N)=O)c(O)n1 |
| 85 to 87 °C | CCOC(C)OCc1ccccc1C(=NO)C(=O)NC (stereo not given) |
| 209 to 210 °C | COc1ccc2sc3c(c2c1)SCCNC3=O |
| 185 to 186 °C | C=C(C(=O)OCC)N1C(C)(C)CC(OC(=O)C=CC(=O)OC2CC(C)(C)N(C(=C)C(=O)OCC)C(C)(C)C2)CC1(C)C |
| 247 °C | O=C(N[C@H]1CC[C@H](CCN2CCC(c3cccc4c3CCO4)CC2)CC1)c1ccc(N2CCOCC2)cc1 |
| 245 to 246 °C | N#Cc1cccc(C2=Nc3ccc(C#Cc4ccc(F)cc4)cc3NC(=O)C2)c1 |
| 134 to 137 °C | CCOC(=O)C(=O)Nc1cnccn1 |
| 96 to 100 °C | CN1C(=O)C2C3CCC(C3)C2(c2ccc(F)c(F)c2)C1=O (stereo not given) |
| 180 to 182 °C | NC(=O)c1nnn(Cc2cc(Cl)c(Sc3ccc(Cl)cc3)c(Cl)c2)c1N |
| 127 to 130 °C | CCOC(=O)C1=C(C)N(C(C)=O)C(c2csc(C)n2)=NC1c1cccc(F)c1 (stereo not given) |
| 341 to 342 °C | O=C(O)c1cc(F)ccc1Nc1ccnc2cc(Cl)ccc12 |

| melting point | SMILES |
| --- | --- |
| 148 to 150 °C | COC(=O)c1sc2cc(OCc3cccnc3)ccc2c1Cl |
| 231 °C | Cc1cc2c(cc1C)C(c1ccccc1Cl)C(=O)N2 (stereo not given) |
| 48 to 50 °C | CC1(C)C=C(CS(=O)(=O)c2ccccc2)C(C)(C)CC1 |
| 157 to 158 °C | O=C(O)c1cccc(-c2ccc3c(c2)C(c2ccc(Cl)cc2Cl)CC3)c1 (stereo not given) |
| 183 to 185 °C | Cc1ncc([N+](=O)[O-])n1CCN1C(=O)C2c3cccc4cccc(c34)C2C1=O (stereo not given) |
| 278 °C | Nc1nc(/C=C/c2ccc([N+](=O)[O-])cc2)cs1 |
| 150 °C | OCc1cc2ccccc2c(-c2ccccc2)c1CO |
| 95 to 96 °C | COC(=O)CCCON1CCNC1=Nc1c(Cl)cccc1Cl |
| 92 to 94 °C | O=Cc1ccc(OCC2CN(Cc3ccccc3)c3ccccc3O2)cc1 (stereo not given) |
| 96 to 98 °C | O=C(NCCCCCCCCCCCCOC(=O)Oc1ccc([N+](=O)[O-])cc1)OC1CCN(C(=O)Oc2ccc(Oc3ccccc3)cc2)CC1 |
| 183 to 188 °C | O=C1Nc2ccccc2C(c2ccc(Cl)c(Cl)c2)CC1Br (stereo not given) |
| 125 to 128 °C | O=C1OC(O)c2c(F)ccc(F)c21 (stereo not given) |
| 212 °C | CCOC(=O)Nc1ccc(N2N=C(C)C(=CNc3ccccc3OC)C2=O)cc1 |
| 115 °C | COC(=O)CCCc1cc2cc(C(F)(F)F)ccc2[nH]1 |
| 108 to 110 °C | CCCCOc1ccc2nc(C(=O)O)c(OCc3ccccc3)cc2c1 |
| 96 to 98 °C | CCOC(=O)c1ccc(NCC(C)Oc2ccc(F)cc2)cc1 (stereo not given) |
| 185 °C | CCN(CC)C(=O)CCNC1(c2ccccc2Cl)C(=O)Nc2ccc(Cl)cc21 (stereo not given) |
| 236 °C | CN1C=Nc2cc(Cl)c3cc4ccccc4cc3c2C1 |
| 111 to 117 °C | COc1ccc(C(=O)Cc2ccncc2)c2c1OCC2C (stereo not given) |
| 120 °C | CC12CCC(C1)C1(C)Oc3ccc(Br)cc3C21C (stereo not given) |
| 126 to 127 °C | COC(=O)c1c(OC)c([N+](=O)[O-])c(C(=O)OC)c(OC)c1[N+](=O)[O-] |
| 118 to 120 °C | CC(=O)c1cc2c(s1)SCCN(CCCCN1CCN(c3ncccn3)CC1)C2=O |
| 176 to 178 °C | CS(=O)(=O)Nc1ccc(CCNC(=O)c2cc3cc(O)ccc3cc2O)cc1 |

| melting point | SMILES |
| --- | --- |
| 210 to 213 °C | O=C(Nc1cccc2c(CBr)c(Br)cnc12)c1c(Cl)cccc1Cl |
| 110 to 112 °C | CCCCCCCCOC(=O)/C=C/c1ccccc1C1C(C(=O)OCC)=C(C)NC(C)=C1C(=O)OCC |
| 108 to 111 °C | CC(C)(C)N1CC2(CCNCC2)OC1=O |
| 142 to 145 °C | O=C1c2cc(F)cc(F)c2CC[C@@H]1NC(=O)C(F)(F)F |
| 170 to 171 °C | COc1ccc2c(c1)nc1snc(C(=O)c3ncc(C)c(OC)c3C)n12 |
| 134 to 135 °C | CCCc1nc(-n2cccc2)c(C(=O)OCC)[nH]1 |
| 152 to 154 °C | COc1ccc(CN2C(=O)[C@@H](NC(=O)Cc3ccccc3)[C@H]2CO)c(OC)c1 (relative stereo) |
| 216 to 218 °C | Cc1nc2cccc(OCC(C)(C)C(=O)NC(C)C)c2c(N)c1C(=O)O |
| 124 to 126 °C | CC(C)NCC(O)COc1ccccc1C1=NNC(=O)CC1 (stereo not given) |
| 121 to 122 °C | CCOc1ccc(-c2ccc(C3COC(c4c(Cl)cncc4Cl)=N3)cc2)cc1 (stereo not given) |
| 188 to 191 °C | COC(=O)c1cc(Cl)c2nc(C)cn2c1N |
| 253 °C | CCOc1cc(-c2cc(C(F)(F)F)n3ncc(C(=O)Nc4cccc(S(N)(=O)=O)c4)c3n2)ccc1C(F)(F)F |
| 65 to 70 °C | O=C(O)C(Cc1ccccc1)C(=O)NC(CS)Cc1ccccc1 (stereo not given) |
| 71 to 72 °C | COC(=O)c1ccc(-c2cccc(OCc3ccc(COC(=O)c4ccccc4)c(COC(=O)c4ccccc4)c3)c2)cc1 |
| 239 to 241 °C | O=C(O)c1cccc(-c2nccc(-c3ccc(F)cc3)n2)c1 |
| 86 to 87 °C | CCOC(=O)c1cccc(Cc2ccc3ccccc3c2O)c1 |
| 124 to 126 °C | CC(C)n1nc(-c2c(-c3ccccc3)nn3ccc(N4CCN(C(=O)c5ccccc5)CC4)cc23)ccc1=O |
| > 350 °C | CCCn1c(=O)c2nc(-c3cccc(/C=C/C(=O)O)c3)[nH]c2n(CC2CCCCC2)c1=O |
| 88 to 90 °C | CCCc1c(OCCCC#CCO)ccc(C(C)=O)c1O |
| 158 °C | O=C(O)CCCc1cc2nc(C(F)(F)F)ccc2n1S(=O)(=O)c1ccc2c(c1)OCCO2 |
| 165 to 169 °C | CC1CC(=O)C=C(N)C1 (stereo not given) |
| 163 to 164 °C | CN(Cc1ccc(Cl)c(Cl)c1)C(=O)C1=C(O)C(=O)N(C2CC2)C1 |
| 150 to 156 °C | CCOC(=O)c1cnn(-c2ccc(Cl)cc2)c1N |

| melting point | SMILES |
| --- | --- |
| 165 to 167 °C | COC1CCN(S(=O)(=O)c2ccc(S(N)(=O)=O)c(Cl)c2)CC1 |
| 70 to 75 °C | CC1(C)OCc2c1nc1ccccc1c2NCCCN1CCCC1 |
| 86 to 88 °C | CC(=O)OCC1OC(n2cc(C(Br)=CI)c(=O)[nH]c2=O)C(OC(C)=O)C1OC(C)=O (stereo not given) |
| 148 to 150 °C | CN1CCC(c2c[nH]c3ccc(Sc4ccc(Cl)cc4)cc23)CC1 |
| 246 °C | CC1Cc2cc(S(=O)(=O)n3cc(-c4ccccc4)[nH]c3=O)ccc2N1C(=O)c1ccc(NC(=O)CCl)cc1 (stereo not given) |
| 72 to 73 °C | COC(=O)CCC(C#N)(CCC(=O)OC)c1ccc(OC)c(OC)c1 |
| 215 °C | COc1ccc2cc(C#N)c(=O)oc2c1C |
| 187 to 189 °C | O=C(O)c1ccc(F)c2c1OCC=C2 |
| 80 to 81 °C | O=C(CBr)c1cc(OCc2ccccc2)no1 |
| 81 to 82 °C | CCOP(=O)(OCC)C(CCc1cc(C)nc2c(I)c(-c3ccccc3)nn12)P(=O)(OCC)OCC |
| 48 to 50 °C | CCc1ccc(C(=O)Sc2ccccn2)cc1 |
| 246 °C | O=C1c2ccccc2C(O)N1c1ccc2ccc(F)nc2n1 (stereo not given) |
| 114 to 115 °C | O=S(=O)(Cl)c1cc(Cl)c(Cl)c(S(=O)(=O)Cl)c1 |
| 152 to 154 °C | Cc1nc2c(s1)-c1nc(NCc3ccccc3)ncc1CC2 |
| 145 to 148 °C | CCc1nc2c(cnn2CC)c(NC2CCOCC2)c1CNC(=O)c1cccc(C(=O)NCc2ccc(F)c(-c3cccc(CN4CCCNCC4)c3)c2)c1 |
| 150 °C | CC#CCOc1ccc(S(=O)(=O)NC[C@@H](C(=O)NO)N2CCN(S(C)(=O)=O)CC2)cc1 |
| 156 °C | CCCN(CCCCN1CCN(c2ccccc2)CC1)C1CCc2nc(N)sc2C1 (stereo not given) |
| 181 to 182 °C | CCCOc1ccc(-c2cccc3nc(N)c4ncn(CC(C)C)c4c23)cc1 |
| 150 to 152 °C | CC1(N)CCC(=O)N(C(=O)OCc2ccccc2)C1=O (stereo not given) |
| 185 to 186 °C | CC1Cc2cccc(S(N)(=O)=O)c2OS1(=O)=O (stereo not given) |
| 148 to 151 °C | CCCCC(=O)OC(C)OC(=O)NC1(C(=O)O)CC1 (stereo not given) |

| SMILES | melting point |
| --- | --- |
| [N-]=[N+]=C1C(=O)CC2CCCCC2C1=O (stereo not given) | 81 to 83 °C |
| CC1=NNC(=O)C1(C)Cl (stereo not given) | 56 °C |
| Cc1ccc(C(=O)c2cc(CCN(C)C)c(O)c(C(C)(C)C)c2)cc1 | 123 to 124 °C |
| COc1cc(C(=O)c2csc(-c3ccc(N)cc3)n2)cc(OC)c1OC | 166 to 169 °C |
| COC(=O)Nc1cccc(CC(C)N)c1 (stereo not given) | 93 to 95 °C |
| CCN(CC)C(=O)[C@H]1CN2CC[C@H]1[C@H](NCc1cc(OC)ccc1OC)[C@@H]2C(c1ccccc1)c1ccccc1 (relative stereo) | 153 to 154 °C |
| COc1ccc(C2=CCN(Cc3n[nH]c4ccccc34)CC2)cc1 | 157 to 159 °C |
| C1=C(c2c[nH]c3ccccc23)CCN(CC2COc3ccc4nocc4c3O2)C1 (stereo not given) | 110 °C |
| CCN(CC)C(=O)CN1C(=O)C(NC(=O)Nc2ccccc2Cl)N=C(c2ccccc2)c2ccccc21 (stereo not given) | 173 to 175 °C |
| CC1(C)N=C(c2ccccc2F)c2cc([N+](=O)[O-])cc(Cl)c2NC1=O | 142 to 143 °C |
